We go through two molecules from ChEMBL document CHEMBL1126784, “A selective delta 1 opioid receptor agonist derived from oxymorphone. Evidence for separate recognition sites for delta 1 opioid receptor agonists and antagonists” (J Med Chem, 1993).

Broadly, the Ki is the dissociation constant of the complex between target and ligand, obtained from inhibition or displacement. A low value points to tighter binding.

One assay has as its system Mus musculus. Briefly: Antinociceptive potency in mice using the tail-flick test on icv administration. It counts as functional. A general note: In hot-plate and tail-flick tests a longer latency is read as antinociception.
The target in assay [1] is Kappa-type opioid receptor (Cavia porcellus, UniProt P41144). Briefly: selective binding affinity against kappa opioid receptor, using [3H]U-69593 as radioligand.
A further assay deals with Mu-type opioid receptor (Cavia porcellus, UniProt P97266). The experiment in a line: selective binding affinity against mu opioid receptor, using [3H]DAMGO as radioligand.

Structures are written as SMILES.

Kappa-type opioid receptor, sequence (P41144 whole entry): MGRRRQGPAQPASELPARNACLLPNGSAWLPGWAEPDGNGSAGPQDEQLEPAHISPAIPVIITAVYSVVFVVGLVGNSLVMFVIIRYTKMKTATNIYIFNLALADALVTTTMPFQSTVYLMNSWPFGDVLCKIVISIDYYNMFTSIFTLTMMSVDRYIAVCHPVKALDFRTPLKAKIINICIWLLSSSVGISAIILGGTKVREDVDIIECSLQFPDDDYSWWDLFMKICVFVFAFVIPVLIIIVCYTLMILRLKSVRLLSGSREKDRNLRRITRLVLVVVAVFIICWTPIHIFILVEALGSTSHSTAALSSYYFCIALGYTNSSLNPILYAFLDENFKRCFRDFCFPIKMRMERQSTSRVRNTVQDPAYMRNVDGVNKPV
Mu-type opioid receptor, sequence (P97266 whole entry): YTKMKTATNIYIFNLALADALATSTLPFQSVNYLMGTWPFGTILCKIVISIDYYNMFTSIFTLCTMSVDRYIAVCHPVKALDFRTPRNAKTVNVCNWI

The molecule `CC1(C)SSC(C)(C)[C@@H](NC(=O)[C@@H](N)Cc2ccc(O)cc2)C(=O)NCC(=O)N[C@@H](Cc2ccccc2)C(=O)N[C@H]1C(=O)O` returned an ED50 with Mus musculus of 11.5 nM mouse-1.

In the assay on Mus musculus, `CN1CC[C@]23c4c5ccc(O)c4O[C@H]2C(=O)C2(Cc4ccccc4C2)C[C@@]3(O)[C@H]1C5` [SPIROINDANYLOXYMORPHONE] showed an ED50 of 1.7 nM mouse-1. For the same molecule, the values for the inhibitory constant (Ki) (in assay [1]; at Mu-type opioid receptor) were 0.588 µM and 0.0106 µM, respectively.
